For data set [1], the target named is T1, LDLR (Homo sapiens, UniProt P01130). Put plainly: KD (µM). An excerpt:
First copying reader's note: Left of three side-by-side panels of FIG. 23; the KD cells hold value ± error together. Where the first naming reader finds the target: description_of_the_figure: FIG. 23 is a table showing the binding kinetics results of LDLR binding assays (SPR)
Target sequence in this assay (P01130 22-860 limits assumed): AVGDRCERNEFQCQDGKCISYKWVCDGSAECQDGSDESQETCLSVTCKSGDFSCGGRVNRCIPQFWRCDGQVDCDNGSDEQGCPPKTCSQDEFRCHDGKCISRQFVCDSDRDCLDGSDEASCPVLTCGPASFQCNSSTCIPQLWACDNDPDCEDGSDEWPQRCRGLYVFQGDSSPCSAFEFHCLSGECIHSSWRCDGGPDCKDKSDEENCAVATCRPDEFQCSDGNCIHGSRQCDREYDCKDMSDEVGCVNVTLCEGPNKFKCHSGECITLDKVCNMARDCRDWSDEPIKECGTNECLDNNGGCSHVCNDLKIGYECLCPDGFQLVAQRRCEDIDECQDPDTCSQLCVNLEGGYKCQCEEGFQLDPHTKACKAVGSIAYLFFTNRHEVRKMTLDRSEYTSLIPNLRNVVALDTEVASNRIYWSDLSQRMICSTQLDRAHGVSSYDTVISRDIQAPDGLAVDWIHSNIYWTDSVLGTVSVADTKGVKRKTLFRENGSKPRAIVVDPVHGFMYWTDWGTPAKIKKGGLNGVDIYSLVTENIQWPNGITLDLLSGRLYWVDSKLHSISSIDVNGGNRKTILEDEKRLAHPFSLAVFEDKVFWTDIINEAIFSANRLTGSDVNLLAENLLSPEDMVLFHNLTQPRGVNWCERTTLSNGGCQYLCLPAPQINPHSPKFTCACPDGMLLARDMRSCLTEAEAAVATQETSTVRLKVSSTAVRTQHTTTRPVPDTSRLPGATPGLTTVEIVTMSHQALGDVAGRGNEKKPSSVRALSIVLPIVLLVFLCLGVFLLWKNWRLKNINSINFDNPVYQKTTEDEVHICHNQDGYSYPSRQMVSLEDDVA

Data set [2] deals with T1, LDLR. Put plainly: KD, Peptide (μM).
Target sequence in this assay (P01130 22-860 limits assumed): as above
From the text: Title: Buffer: HBS + 0.005% P20
Head of the field: KD, Peptide (μM)
First copying reader's note: KD values are for binding to LDLR by SPR, peptide alone versus peptide:DMPC lipid complex; the table continues on FIG. 24B.
Data set [3] deals with T1, LDLR. Put plainly: LDLR binding (SPR), high surfactant preparation. In outline:
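Surface plasmon resonance with recombinant LDLR amine-coupled to a CM5 chip at 1000 RU. Peptides, 5 μM top concentration then 1:3 dilutions (5 levels) in HBS-P+ with 1 mM CaCl2, injected 120 seconds at 30 μL/sec; multi-cycle kinetics fitted to a 1:1 binding model.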
Target sequence in this assay (P01130 22-860): as the sequence (P01130 22-860 limits assumed) above

The test system of a further data set is ARPE-19 cells. The data set is described as follows: ARPE-19 cell viability assay (Cell Titer Glo). The format is cell-based, human. As to conditions: 100 μM peptide, 1.5 hours. The method, then: ARPE-19 cells were seeded in 96-well plates at 25,000 cells/well and allowed to adhere to the plate surface for at least 24 hours. Peptides were diluted in serum-free DMEM: F12 to a final concentration of 100 μM. Cells were washed, then incubated in 100 μM peptide solution for 1.5 hours at 37° C. Plates were brought to room temperature for 30 minutes, then washed with DPBS. Cells were incubated in a 1:1 mixture of DPBS and Cell Titer Glo 2.0 Reagent for 10 minutes at room temperature, then cell luminescence was read on a plate reader. Viability values were background corrected, and 0% viability is determined by luminescence values of cells treated with 1% Triton-X-100. Data are presented as mean+SD over two separate runs.
Background: ATP-based viability assays read luminescence as a measure of living cells.

Where [4] appears, read: high surfactant preparation (HBS-P+), 1:1 binding model, read-out: binding KD to LDLR.

Ends that are not written are not given here. Peptide text beside a SMILES is read from it. Some results are limits rather than exact numbers.

Consider `CC(C)C[C@H](NC(=O)[C@H](CCCNC(=N)N)NC(=O)[C@H](CC(=O)O)NC(=O)[C@H](CCC(N)=O)NC(=O)[C@H](CC(C)C)NC(=O)[C@H](CCCCN)NC(=O)[C@H](CC(=O)O)NC(=O)[C@H](C)NC(=O)[C@H](CC(=O)O)NC(=O)[C@H](CCCNC(=N)N)NC(=O)[C@H](CC(C)C)NC(=O)[C@H](CC(C)C)NC(=O)[C@H](CCCNC(=N)N)NC(=O)[C@H](CCCCN)NC(=O)[C@H](CCCNC(=N)N)NC(=O)[C@H](CC(C)C)NC(=O)[C@H](CCCCN)NC(=O)[C@H](CCCNC(=N)N)NC(=O)[C@H](CC(C)C)NC(=O)[C@@H](N)Cc1c[nH]cn1)C(=O)N[C@@H](C)C(=O)N[C@@H](CCC(=O)O)C(=O)N[C@@H](Cc1ccc(O)cc1)C(=O)N[C@@H](CCC(N)=O)C(=O)N[C@@H](C)C(=O)N[C@@H](CCCNC(=N)N)C(=O)N[C@@H](C)C(=O)N[C@@H](CCCCN)C(=O)N[C@@H](CCC(=O)O)C(=O)N[C@@H](C)C(=O)N[C@@H](Cc1ccccc1)C(=O)N[C@@H](CC(=O)O)C(=O)N[C@@H](CCCNC(=N)N)C(=O)O` [T-050] (H-HLRKLRKRLLRDADKLQDRLAEYQARAKEAFDR-OH; N-terminus and C-terminus assumed), for which the Kd – broadly, the concentration at which binding is half-saturated – on LDLR [1] came out at 528.5 ± 0.71 µM.

For the molecule `CC(C)C[C@H](NC(=O)[C@H](CCCNC(=N)N)NC(=O)[C@H](CCCCN)NC(=O)[C@H](CCC(N)=O)NC(=O)[C@H](CC(C)C)NC(=O)[C@H](CC(=O)O)NC(=O)[C@H](CC(=O)O)NC(=O)[C@H](C)NC(=O)[C@H](CC(=O)O)NC(=O)[C@H](CCCNC(=N)N)NC(=O)[C@H](CC(C)C)NC(=O)[C@H](CC(C)C)NC(=O)[C@H](CCCNC(=N)N)NC(=O)[C@H](CCCCN)NC(=O)[C@H](CCCNC(=N)N)NC(=O)[C@H](CC(C)C)NC(=O)[C@H](CCCCN)NC(=O)[C@H](CCCNC(=N)N)NC(=O)[C@H](CC(C)C)NC(=O)[C@@H](N)Cc1c[nH]cn1)C(=O)N[C@@H](C)C(=O)N[C@H](C(=O)N[C@@H](Cc1ccc(O)cc1)C(=O)N[C@@H](CCC(N)=O)C(=O)N[C@@H](C)C(=O)NCC(=O)N[C@@H](C)C(=O)N[C@@H](CCCNC(=N)N)C(=O)N[C@@H](CCC(=O)O)C(=O)NCC(=O)N[C@@H](C)C(=O)N[C@@H](CCC(=O)O)C(=O)N[C@@H](CCCNC(=N)N)C(=O)O)C(C)C` [T-043] (H-HLRKLRKRLLRDADDLQKRLAVYQAGAREGAER-OH; N-terminus and C-terminus assumed), the Kd at LDLR [1] was found to be 48.6 µM; on LDLR [2], 840 ± 1150 µM.

As for “LVQYRGEVQAMLGQSTEELRVRLASHLRKLRKRLLRDADDLQ [T-071]”, the Kd on LDLR [2] amounted to 18.5 ± 2.69 µM.

Regarding `CC(C)C[C@H](NC(=O)[C@H](CCCNC(=N)N)NC(=O)[C@H](CC(=O)O)NC(=O)[C@H](CCC(N)=O)NC(=O)[C@H](CC(C)C)NC(=O)[C@H](CCCCN)NC(=O)[C@H](CC(=O)O)NC(=O)CNC(=O)[C@H](CC(=O)O)NC(=O)[C@H](CCCNC(=N)N)NC(=O)[C@H](CC(C)C)NC(=O)[C@H](CC(C)C)NC(=O)[C@H](CCCNC(=N)N)NC(=O)[C@H](CCCCN)NC(=O)[C@H](CCCNC(=N)N)NC(=O)[C@H](CC(C)C)NC(=O)[C@H](CCCCN)NC(=O)[C@H](CCCNC(=N)N)NC(=O)[C@H](CC(C)C)NC(=O)[C@@H](N)Cc1c[nH]cn1)C(=O)N[C@@H](C)C(=O)N[C@H](C(=O)N[C@@H](Cc1ccc(O)cc1)C(=O)N[C@@H](CCC(N)=O)C(=O)N[C@@H](C)C(=O)N[C@@H](CCCNC(=N)N)C(=O)N[C@@H](C)C(=O)N[C@@H](CCCCN)C(=O)N[C@@H](CCC(=O)O)C(=O)N[C@@H](C)C(=O)N[C@@H](Cc1ccccc1)C(=O)N[C@@H](CC(=O)O)C(=O)N[C@@H](CCCNC(=N)N)C(=O)O)C(C)C` [T-053] (H-HLRKLRKRLLRDGDKLQDRLAVYQARAKEAFDR-OH; N-terminus and C-terminus assumed), the Kd was 121 ± 14.9 µM on LDLR [1] and 43000 ± 34000 µM on LDLR [2].

For `CC(C)C[C@H](NC(=O)[C@H](CCCNC(=N)N)NC(=O)[C@H](CC(=O)O)NC(=O)[C@H](CCC(N)=O)NC(=O)[C@H](CC(C)C)NC(=O)[C@H](CCCCN)NC(=O)[C@H](CC(=O)O)NC(=O)CNC(=O)[C@H](CC(=O)O)NC(=O)[C@H](CCCNC(=N)N)NC(=O)[C@H](C)NC(=O)[C@H](CC(C)C)NC(=O)[C@H](CCCNC(=N)N)NC(=O)[C@H](CCCCN)NC(=O)[C@H](CCCNC(=N)N)NC(=O)[C@H](CC(C)C)NC(=O)[C@H](CCCCN)NC(=O)[C@H](CCCNC(=N)N)NC(=O)[C@H](CC(C)C)NC(=O)[C@H](Cc1c[nH]cn1)NC(=O)[C@H](CCCNC(=N)N)NC(=O)[C@H](C)NC(=O)[C@@H](N)CC(C)C)C(=O)N[C@@H](C)C(=O)N[C@@H](CCC(=O)O)C(=O)N[C@@H](Cc1ccc(O)cc1)C(=O)N[C@@H](CCC(N)=O)C(=O)N[C@@H](C)C(=O)N[C@@H](CCCNC(=N)N)C(=O)N[C@@H](C)C(=O)N[C@@H](CCCCN)C(=O)N[C@@H](CCC(=O)O)C(=O)N[C@@H](C)C(=O)N[C@@H](Cc1ccccc1)C(=O)N[C@@H](CC(=O)O)C(=O)N[C@@H](CCCNC(=N)N)C(=O)O` [T-049] (H-LARHLRKLRKRLARDGDKLQDRLAEYQARAKEAFDR-OH), the Kd on LDLR [1] is 3.26 ± 0.2 µM; on LDLR [3] (setting [4]), less than 10 µM.

Turning to `CC(C)C[C@H](NC(=O)[C@H](CCCNC(=N)N)NC(=O)[C@H](CCCCN)NC(=O)[C@H](CCC(N)=O)NC(=O)[C@H](CC(C)C)NC(=O)[C@H](CC(=O)O)NC(=O)[C@H](CC(=O)O)NC(=O)[C@H](C)NC(=O)[C@H](CC(=O)O)NC(=O)[C@H](CCCNC(=N)N)NC(=O)[C@H](C)NC(=O)[C@H](CC(C)C)NC(=O)[C@H](CCCNC(=N)N)NC(=O)[C@H](CCCCN)NC(=O)[C@H](CCCNC(=N)N)NC(=O)[C@H](CC(C)C)NC(=O)[C@H](CCCCN)NC(=O)[C@H](CCCNC(=N)N)NC(=O)[C@H](CC(C)C)NC(=O)[C@H](Cc1c[nH]cn1)NC(=O)[C@H](CCCNC(=N)N)NC(=O)[C@H](C)NC(=O)[C@@H](N)CC(C)C)C(=O)N[C@@H](C)C(=O)N[C@H](C(=O)N[C@@H](Cc1ccc(O)cc1)C(=O)N[C@@H](CCC(N)=O)C(=O)N[C@@H](C)C(=O)NCC(=O)N[C@@H](C)C(=O)N[C@@H](CCCNC(=N)N)C(=O)N[C@@H](CCC(=O)O)C(=O)NCC(=O)N[C@@H](C)C(=O)N[C@@H](CCC(=O)O)C(=O)N[C@@H](CCCNC(=N)N)C(=O)O)C(C)C` [T-047] (H-LARHLRKLRKRLARDADDLQKRLAVYQAGAREGAER-OH), the Kd at LDLR [1] is 3.26 ± 0.23 µM; on LDLR [3] (setting [4]), less than 10 µM.

On to `CC(C)C[C@H](NC(=O)[C@H](CCCNC(=N)N)NC(=O)[C@H](CC(=O)O)NC(=O)[C@H](CCC(N)=O)NC(=O)[C@H](CC(C)C)NC(=O)[C@H](CCCCN)NC(=O)[C@H](CC(=O)O)NC(=O)CNC(=O)[C@H](CC(=O)O)NC(=O)[C@H](CCCNC(=N)N)NC(=O)[C@H](CC(C)C)NC(=O)[C@H](CC(C)C)NC(=O)[C@H](CCCNC(=N)N)NC(=O)[C@H](CCCCN)NC(=O)[C@H](CCCNC(=N)N)NC(=O)[C@H](CC(C)C)NC(=O)[C@H](CCCCN)NC(=O)[C@H](CCCNC(=N)N)NC(=O)[C@H](CC(C)C)NC(=O)[C@H](Cc1c[nH]cn1)NC(=O)[C@H](CO)NC(=O)[C@H](C)NC(=O)[C@@H](N)CC(C)C)C(=O)N[C@@H](C)C(=O)N[C@@H](CCC(=O)O)C(=O)N[C@@H](Cc1ccc(O)cc1)C(=O)N[C@@H](CCC(N)=O)C(=O)N[C@@H](C)C(=O)N[C@@H](CCCNC(=N)N)C(=O)N[C@@H](C)C(=O)N[C@@H](CCCCN)C(=O)N[C@@H](CCC(=O)O)C(=O)N[C@@H](C)C(=O)N[C@@H](Cc1ccccc1)C(=O)N[C@@H](CC(=O)O)C(=O)N[C@@H](CCCNC(=N)N)C(=O)O` [T-048], for which the Kd was less than 10 µM at LDLR [3] (setting [4]) and 11.4 ± 5.29 µM on LDLR [2].

In the case of `CC(C)C[C@H](NC(=O)[C@H](CC(=O)O)NC(=O)[C@H](CCC(=O)O)NC(=O)CNC(=O)[C@H](Cc1ccc(O)cc1)NC(=O)[C@H](CC(=O)O)NC(=O)[C@@H](NC(=O)[C@@H](NC(=O)[C@@H](NC(=O)[C@H](CCC(N)=O)NC(=O)[C@H](CCCNC(=N)N)NC(=O)[C@H](Cc1ccc(O)cc1)NC(=O)[C@H](CCC(N)=O)NC(=O)[C@H](CO)NC(=O)[C@@H](NC(=O)[C@H](CC(C)C)NC(=O)[C@H](CO)NC(=O)[C@H](CCCNC(=N)N)NC(=O)[C@H](CC(C)C)NC(=O)[C@H](CC(C)C)NC(=O)[C@H](CCCNC(=N)N)NC(=O)[C@H](CCCCN)NC(=O)[C@@H](NC(=O)[C@H](CC(C)C)NC(=O)[C@H](CCCCN)NC(=O)[C@H](CCCNC(=N)N)NC(=O)[C@H](CC(C)C)NC(=O)[C@@H](N)Cc1c[nH]cn1)C(C)C)C(C)C)[C@@H](C)O)C(C)C)[C@@H](C)O)C(=O)O` [T-111] (H-HLRKLVKRLLRSLVSQYRQTVTDYGEDL-OH), in the data set on ARPE-19 cells, the ARPE-19 cell viability result is given as “substantial change in viability”. Besides, the Kd at LDLR [3] (setting [4]) is less than 10 µM.

For the molecule “DHINKVQRKVTHEIERLFLGQSTEELRVRLASHLRKLRKRLLRDADDLQKRLAVYQA [T-115]”, the ARPE-19 cell viability entry with ARPE-19 cells was “substantial change in viability”. Also, the Kd on LDLR [3] was less than 10 µM.

These data come from patent US20260115250A1, “METHODS OF TREATING AGE-RELATED MACULAR DEGENERATION” (Character Biosciences, Inc., priority 2022, published 2026).
